Measured values: the kinase profiling compilation of Christmann-Franck et al. (2016)
Where “and” joins values, the source holds several entries; their conditions need not be identical. Equal values may be shown once.

How the values were obtained:
Experiment in all cases: KINOMEscan competition binding
Details in all cases: compound 0.1 µM
[1] = system: ABL1 (human), P00519 [E255K]
[2] = system: ABL1 (human), P00519 [H396P]
AKT2 (human) = AKT2 (human) (UniProt P31751)
CAMK1G (human) = CAMK1G (human) (UniProt Q96NX5)
CAMKK2 (human) = CAMKK2 (human) (UniProt Q96RR4)
CDK3 (human) = CDK3 (human) (UniProt Q00526)
CIT (human) = CIT (human) (UniProt O14578)
CSNK2A2 (human) = CSNK2A2 (human) (UniProt P19784)
CaMK1 (human) = CaMK1 (human) (UniProt Q14012)
DYRK1B (human) = DYRK1B (human) (UniProt Q9Y463)
[3] = system: EGFR (human), P00533 [746-750 del]
EPHA5 (human) = EPHA5 (human) (UniProt P54756)
EPHA6 (human) = EPHA6 (human) (UniProt Q9UF33)
EPHB1 (human) = EPHB1 (human) (UniProt P54762)
FLT3 (human) = FLT3 (human) (UniProt P36888)
FLT4 (human) = FLT4 (human) (UniProt P35916)
GSG2 (human) = GSG2 (human) (UniProt Q8TF76)
HIPK4 (human) = HIPK4 (human) (UniProt Q8NE63)
[4] = biological target: JAK1 JH1 catalytic (human) (UniProt P23458)
MAP2K6 (human) = MAP2K6 (human) (UniProt P52564)
MAP2K7 (human) = MAP2K7 (human) (UniProt O14733)
MAPK3 (human) = MAPK3 (human) (UniProt P27361)
MKNK1 (human) = MKNK1 (human) (UniProt Q9BUB5)
MTOR (human) = MTOR (human) (UniProt P42345)
NEK11 (human) = NEK11 (human) (UniProt Q8NG66)
NEK9 (human) = NEK9 (human) (UniProt Q8TD19)
PDGFRA (human) = PDGFRA (human) (UniProt P16234)
PIP5K1C (human) = PIP5K1C (human) (UniProt O60331)
PKMYT1 (human) = PKMYT1 (human) (UniProt Q99640)
PRPF4B (human) = PRPF4B (human) (UniProt Q13523)
PTK6 (human) = PTK6 (human) (UniProt Q13882)
RIOK2 (human) = RIOK2 (human) (UniProt Q9BVS4)
RIOK3 (human) = RIOK3 (human) (UniProt O14730)
RPS6KA2 KD1 (human) = RPS6KA2 KD1 (human) (UniProt Q15349)
RPS6KA6 KD2 (human) = RPS6KA6 KD2 (human) (UniProt Q9UK32)
SIK3 (human) = SIK3 (human) (UniProt Q9Y2K2)
SRMS (human) = SRMS (human) (UniProt Q9H3Y6)
TNK2 (human) = TNK2 (human) (UniProt Q07912)
[5] = biological target: TYK2 JH1 catalytic (human) (UniProt P29597)
YSK4 (human) = YSK4 (human) (UniProt Q56UN5)

Sequence of FLT3 (human) (P36888 whole entry, looked up): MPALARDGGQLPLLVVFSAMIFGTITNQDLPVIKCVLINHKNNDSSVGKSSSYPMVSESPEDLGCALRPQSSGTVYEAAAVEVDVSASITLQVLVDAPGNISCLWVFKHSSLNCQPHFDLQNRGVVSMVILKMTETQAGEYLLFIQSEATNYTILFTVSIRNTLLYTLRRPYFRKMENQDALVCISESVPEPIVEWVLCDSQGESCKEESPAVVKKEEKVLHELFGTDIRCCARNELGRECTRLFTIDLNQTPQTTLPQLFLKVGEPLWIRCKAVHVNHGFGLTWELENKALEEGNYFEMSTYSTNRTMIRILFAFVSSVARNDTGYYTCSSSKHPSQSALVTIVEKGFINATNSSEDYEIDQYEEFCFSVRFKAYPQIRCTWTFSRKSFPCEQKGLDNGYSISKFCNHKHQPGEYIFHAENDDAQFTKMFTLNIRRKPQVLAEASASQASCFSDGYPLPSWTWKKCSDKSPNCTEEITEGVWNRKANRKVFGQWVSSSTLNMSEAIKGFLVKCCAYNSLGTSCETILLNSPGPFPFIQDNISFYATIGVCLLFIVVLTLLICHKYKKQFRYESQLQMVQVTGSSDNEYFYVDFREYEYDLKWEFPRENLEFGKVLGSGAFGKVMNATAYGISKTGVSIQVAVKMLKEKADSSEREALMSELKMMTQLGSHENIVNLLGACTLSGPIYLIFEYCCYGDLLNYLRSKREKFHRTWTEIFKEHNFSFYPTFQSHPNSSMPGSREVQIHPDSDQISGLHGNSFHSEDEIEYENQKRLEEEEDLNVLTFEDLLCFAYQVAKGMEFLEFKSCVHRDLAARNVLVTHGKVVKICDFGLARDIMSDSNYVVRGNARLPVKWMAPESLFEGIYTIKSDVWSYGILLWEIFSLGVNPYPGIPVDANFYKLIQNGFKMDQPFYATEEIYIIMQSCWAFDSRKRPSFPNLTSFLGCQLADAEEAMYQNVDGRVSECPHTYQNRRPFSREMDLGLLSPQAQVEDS
Sequence of CDK3 (human) (Q00526 whole entry, looked up): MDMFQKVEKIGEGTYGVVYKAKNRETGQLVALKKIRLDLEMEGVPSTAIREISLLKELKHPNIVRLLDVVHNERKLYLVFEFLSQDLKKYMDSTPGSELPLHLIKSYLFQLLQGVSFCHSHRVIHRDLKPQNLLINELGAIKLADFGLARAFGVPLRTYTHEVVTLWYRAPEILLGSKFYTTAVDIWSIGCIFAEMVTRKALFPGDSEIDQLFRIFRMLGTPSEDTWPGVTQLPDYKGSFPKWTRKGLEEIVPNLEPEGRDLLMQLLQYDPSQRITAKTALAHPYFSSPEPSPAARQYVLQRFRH
Sequence of HIPK4 (human) (Q8NE63 whole entry, looked up): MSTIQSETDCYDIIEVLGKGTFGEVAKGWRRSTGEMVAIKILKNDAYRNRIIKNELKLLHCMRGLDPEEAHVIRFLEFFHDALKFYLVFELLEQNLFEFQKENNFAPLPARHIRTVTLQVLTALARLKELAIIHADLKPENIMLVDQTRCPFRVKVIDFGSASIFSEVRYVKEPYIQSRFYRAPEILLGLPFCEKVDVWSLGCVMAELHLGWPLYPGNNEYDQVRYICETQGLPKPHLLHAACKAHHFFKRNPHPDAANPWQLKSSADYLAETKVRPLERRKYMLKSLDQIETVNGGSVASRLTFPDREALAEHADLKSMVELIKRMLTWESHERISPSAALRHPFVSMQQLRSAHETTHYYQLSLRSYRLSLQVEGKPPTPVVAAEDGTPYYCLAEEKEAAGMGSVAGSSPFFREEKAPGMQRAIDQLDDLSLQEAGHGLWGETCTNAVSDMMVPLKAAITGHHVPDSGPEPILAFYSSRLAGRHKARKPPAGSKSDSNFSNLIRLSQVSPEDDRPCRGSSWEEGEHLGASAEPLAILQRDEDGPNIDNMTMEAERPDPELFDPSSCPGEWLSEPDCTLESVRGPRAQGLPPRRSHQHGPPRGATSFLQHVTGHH
Sequence of FLT4 (human) (P35916 whole entry, looked up): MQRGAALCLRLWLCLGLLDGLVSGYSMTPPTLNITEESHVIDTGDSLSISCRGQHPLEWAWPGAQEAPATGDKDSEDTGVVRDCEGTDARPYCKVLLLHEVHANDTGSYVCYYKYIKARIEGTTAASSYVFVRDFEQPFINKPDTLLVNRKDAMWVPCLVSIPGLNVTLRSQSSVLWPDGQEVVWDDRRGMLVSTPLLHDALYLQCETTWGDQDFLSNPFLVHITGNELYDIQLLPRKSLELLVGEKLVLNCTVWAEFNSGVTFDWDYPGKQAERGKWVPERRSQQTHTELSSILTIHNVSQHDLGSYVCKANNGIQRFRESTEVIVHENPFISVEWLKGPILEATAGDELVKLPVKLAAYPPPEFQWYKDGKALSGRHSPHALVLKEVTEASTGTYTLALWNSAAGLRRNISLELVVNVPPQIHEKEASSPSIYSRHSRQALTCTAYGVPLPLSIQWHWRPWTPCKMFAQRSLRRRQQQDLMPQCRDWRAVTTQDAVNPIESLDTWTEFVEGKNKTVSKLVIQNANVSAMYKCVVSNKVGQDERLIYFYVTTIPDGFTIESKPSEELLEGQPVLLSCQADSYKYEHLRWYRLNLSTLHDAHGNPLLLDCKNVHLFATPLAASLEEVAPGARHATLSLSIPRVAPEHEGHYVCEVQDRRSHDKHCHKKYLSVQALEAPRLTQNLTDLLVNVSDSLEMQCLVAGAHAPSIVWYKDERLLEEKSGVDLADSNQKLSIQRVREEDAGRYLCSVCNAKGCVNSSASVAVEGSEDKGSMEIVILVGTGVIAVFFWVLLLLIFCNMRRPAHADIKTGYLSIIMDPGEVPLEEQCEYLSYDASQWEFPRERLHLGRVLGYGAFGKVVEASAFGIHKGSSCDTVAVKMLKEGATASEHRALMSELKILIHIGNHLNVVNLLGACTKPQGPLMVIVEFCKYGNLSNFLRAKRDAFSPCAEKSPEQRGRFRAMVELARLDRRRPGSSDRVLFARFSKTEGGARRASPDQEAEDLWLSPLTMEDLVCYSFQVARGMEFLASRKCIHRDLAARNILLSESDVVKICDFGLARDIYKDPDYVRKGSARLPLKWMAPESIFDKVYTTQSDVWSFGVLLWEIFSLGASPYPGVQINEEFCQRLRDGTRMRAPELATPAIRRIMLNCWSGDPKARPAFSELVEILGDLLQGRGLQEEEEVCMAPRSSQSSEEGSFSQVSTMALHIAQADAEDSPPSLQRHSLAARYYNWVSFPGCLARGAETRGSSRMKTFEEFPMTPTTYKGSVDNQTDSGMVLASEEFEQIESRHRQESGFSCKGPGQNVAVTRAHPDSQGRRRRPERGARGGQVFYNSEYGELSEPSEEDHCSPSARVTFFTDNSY
Sequence of AKT2 (human) (P31751 whole entry, looked up): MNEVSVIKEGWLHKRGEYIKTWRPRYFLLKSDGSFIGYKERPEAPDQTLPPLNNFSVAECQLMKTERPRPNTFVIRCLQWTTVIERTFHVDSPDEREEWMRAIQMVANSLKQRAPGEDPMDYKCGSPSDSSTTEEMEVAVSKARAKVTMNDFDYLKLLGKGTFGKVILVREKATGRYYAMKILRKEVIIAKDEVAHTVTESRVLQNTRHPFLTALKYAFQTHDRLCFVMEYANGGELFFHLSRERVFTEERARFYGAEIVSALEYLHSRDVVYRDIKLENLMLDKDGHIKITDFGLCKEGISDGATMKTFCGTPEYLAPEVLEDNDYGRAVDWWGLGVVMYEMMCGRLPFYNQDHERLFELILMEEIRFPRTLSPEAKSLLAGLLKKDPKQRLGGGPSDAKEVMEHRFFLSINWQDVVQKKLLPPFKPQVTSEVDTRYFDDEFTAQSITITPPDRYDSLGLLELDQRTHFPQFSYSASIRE
Sequence of RPS6KA6 KD2 (human) (Q9UK32 whole entry, looked up): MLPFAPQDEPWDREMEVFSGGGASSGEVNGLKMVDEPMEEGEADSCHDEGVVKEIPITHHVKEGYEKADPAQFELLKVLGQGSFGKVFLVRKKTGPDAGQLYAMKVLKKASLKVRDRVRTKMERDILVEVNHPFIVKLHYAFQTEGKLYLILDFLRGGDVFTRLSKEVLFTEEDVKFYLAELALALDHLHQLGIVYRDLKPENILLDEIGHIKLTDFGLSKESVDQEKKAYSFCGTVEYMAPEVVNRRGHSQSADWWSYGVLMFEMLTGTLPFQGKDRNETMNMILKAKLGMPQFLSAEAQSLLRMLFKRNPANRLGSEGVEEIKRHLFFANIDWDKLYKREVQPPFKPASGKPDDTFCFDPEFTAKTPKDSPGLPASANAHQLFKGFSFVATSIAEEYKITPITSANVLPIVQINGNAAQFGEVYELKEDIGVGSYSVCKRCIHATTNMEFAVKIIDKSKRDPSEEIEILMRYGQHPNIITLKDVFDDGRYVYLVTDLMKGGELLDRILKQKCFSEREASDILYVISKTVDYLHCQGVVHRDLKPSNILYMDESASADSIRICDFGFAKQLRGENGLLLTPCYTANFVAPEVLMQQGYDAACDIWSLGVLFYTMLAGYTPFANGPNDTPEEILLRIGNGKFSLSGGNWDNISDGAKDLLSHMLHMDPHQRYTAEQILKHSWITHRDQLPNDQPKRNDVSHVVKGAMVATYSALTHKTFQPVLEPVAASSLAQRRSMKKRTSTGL
Sequence of MAPK3 (human) (P27361 whole entry, looked up): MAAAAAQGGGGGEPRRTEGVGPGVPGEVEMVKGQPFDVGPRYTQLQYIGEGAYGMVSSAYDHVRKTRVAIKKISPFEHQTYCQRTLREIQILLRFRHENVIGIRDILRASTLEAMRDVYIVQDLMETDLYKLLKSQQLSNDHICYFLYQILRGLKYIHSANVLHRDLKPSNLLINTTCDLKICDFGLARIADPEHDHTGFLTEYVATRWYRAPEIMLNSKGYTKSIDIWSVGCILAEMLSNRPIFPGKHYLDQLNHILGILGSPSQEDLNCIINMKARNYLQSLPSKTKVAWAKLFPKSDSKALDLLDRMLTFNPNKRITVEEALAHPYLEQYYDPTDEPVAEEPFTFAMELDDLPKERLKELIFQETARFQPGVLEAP

`CCc1ccc(C(=O)Nc2cc(CN3CCN(C)CC3)cc(C(F)(F)F)c2)cc1C#Cc1cnc2ccnn2c1` gave a kinase still bound, per cent of control [1] of 100%, a kinase still bound, per cent of control [2] of 100% and a kinase still bound, per cent of control (AKT2 (human)) of 83%. The kinase still bound, per cent of control (CAMK1G (human)) was 71%, the kinase still bound, per cent of control (CAMKK2 (human)) was 73% and the kinase still bound, per cent of control (CDK3 (human)) was 100%. It also gave a kinase still bound, per cent of control (CIT (human)) of 92%, a kinase still bound, per cent of control (CSNK2A2 (human)) of 100% and a kinase still bound, per cent of control (CaMK1 (human)) of 75%. It also gave a kinase still bound, per cent of control (DYRK1B (human)) of 53%, a kinase still bound, per cent of control [3] of 100% and a kinase still bound, per cent of control (EPHA5 (human)) of 100%. For the same molecule, the kinase still bound, per cent of control (EPHA6 (human)) was 63%, the kinase still bound, per cent of control (EPHB1 (human)) was 96% and the kinase still bound, per cent of control (FLT3 (human)) was 78% and 100%. For the same molecule, the kinase still bound, per cent of control (FLT4 (human)) was 85%, the kinase still bound, per cent of control (GSG2 (human)) was 75% and the kinase still bound, per cent of control (HIPK4 (human)) was 78%. It also gave a kinase still bound, per cent of control [4] of 100%, a kinase still bound, per cent of control (MAP2K6 (human)) of 100% and a kinase still bound, per cent of control (MAP2K7 (human)) of 100%. The kinase still bound, per cent of control (MAPK3 (human)) was 100%, the kinase still bound, per cent of control (MKNK1 (human)) was 91% and the kinase still bound, per cent of control (MTOR (human)) was 100%. It also gave a kinase still bound, per cent of control (NEK11 (human)) of 91%, a kinase still bound, per cent of control (NEK9 (human)) of 100% and a kinase still bound, per cent of control (PDGFRA (human)) of 79%. It also gave a kinase still bound, per cent of control (PIP5K1C (human)) of 96%, a kinase still bound, per cent of control (PKMYT1 (human)) of 100% and a kinase still bound, per cent of control (PRPF4B (human)) of 75%. The kinase still bound, per cent of control (PTK6 (human)) was 100%, the kinase still bound, per cent of control (RIOK2 (human)) was 100% and the kinase still bound, per cent of control (RIOK3 (human)) was 64%. For the same molecule, the kinase still bound, per cent of control (RPS6KA2 KD1 (human)) was 78%, the kinase still bound, per cent of control (RPS6KA6 KD2 (human)) was 100% and the kinase still bound, per cent of control (SIK3 (human)) was 100%. For the same molecule, the kinase still bound, per cent of control (SRMS (human)) was 99%, the kinase still bound, per cent of control (TNK2 (human)) was 96% and the kinase still bound, per cent of control [5] was 100%. For the same molecule, the kinase still bound, per cent of control (YSK4 (human)) was 100%.
